Assay results taken from patent US20010044437A1, “Methods for reducing uric acid levels” (priority 2000, published 2001).

Test system: serum uric acid
Experiment: Serum uric acid during 28-day once-daily oral dosing, placebo-controlled study in 48 subjects (Example 34)
Assay type: in vivo, human
Description: In another study, 48 subjects were divided into four groups, A, B, C and D, and administered the noted amount of the compound of Example 3. Each group was composed of 12 subjects of whom 9 received the compound and 3 received placebo. The non-placebo members of group A received 50 mg of compound, administered orally once a day for 28 days as a single 50 mg tablet. The non-placebo members of group B received 200 mg of compound administered orally once a day for 28 days as a single 200 mg tablet. The non-placebo members of group C received 500 mg of compound administered orally once a day for 28 days as two 50 mg tablets and two 200 mg tablets. The non-placebo members of group D received 800 mg of compound administered orally once a day for 28 days as four 200 mg tablets. The 3 placebo members of each group, received an amount of placebo, as a tablet, equivalent to the amount of test compound—50 mg placebo for group A, 200 mg placebo for group B, 500 mg placebo for group C and 800 mg placebo for group D. Each subject received a single dose of either compound or placebo for 28 days. The subjects were confined at the clinical site beginning the day before dose administration until 72 hours after the final dose administration on Day 28 and returned for an outpatient visit on Day 35.
Uric acid levels were measured prior to beginning the study (screening), on the day immediately prior to commencement of the study (day-1), and then as noted in the table. Hours indicates the time since the last dose was administered. For example, Day 7, 0 hour indicates the time the serum uric acid level at the time the dose was administered and Day 7, 2 hour indicates the uric acid level two hours after the adminstration that day. Further, the Day 30, 60 hour level is the serum uric acid level measured 60 hours (on Day 30) after the last dose was administered on Day 28. The uric acid levels are presented in mg/dL as a mean of all subjects in each group.

O=C(O)Cn1cc(Cc2nc3c(F)c(F)cc(F)c3s2)c2ccccc21 [Example 3, 3-(4,5,7-Trifluorobenzothiazol-2-yl)methyl-indole-N-acetic Acid]
Uric Acid Level (mean of all subjects in each group) (group B 200 mg orally once a day, Day 7 24 Hour): 2.70 mg/dL
Uric Acid Level (mean of all subjects in each group) (group B 200 mg orally once a day, Day 14 0 Hour): 2.87 mg/dL
Uric Acid Level (mean of all subjects in each group) (group C 500 mg orally once a day, Day 1 0 Hour): 5.16 mg/dL
Uric Acid Level (mean of all subjects in each group) (group C 500 mg orally once a day, Day 1 0.5 Hour): 5.08 mg/dL
Uric Acid Level (mean of all subjects in each group) (group C 500 mg orally once a day, Day 1 1 Hour): 4.81 mg/dL
Uric Acid Level (mean of all subjects in each group) (group C 500 mg orally once a day, Day 1 2 Hour): 4.27 mg/dL
Uric Acid Level (mean of all subjects in each group) (group C 500 mg orally once a day, Day 1 3 Hour): 3.84 mg/dL
Uric Acid Level (mean of all subjects in each group) (group C 500 mg orally once a day, Day 1 4 Hour): 3.54 mg/dL
Uric Acid Level (mean of all subjects in each group) (group C 500 mg orally once a day, Day 1 6 Hour): 3.30 mg/dL
Uric Acid Level (mean of all subjects in each group) (group C 500 mg orally once a day, Day 1 8 Hour): 2.82 mg/dL
Uric Acid Level (mean of all subjects in each group) (group C 500 mg orally once a day, Day 1 10 Hour): 2.59 mg/dL
Uric Acid Level (mean of all subjects in each group) (group C 500 mg orally once a day, Day 1 12 Hour): 2.56 mg/dL
Uric Acid Level (mean of all subjects in each group) (group C 500 mg orally once a day, Day 1 16 Hour): 2.36 mg/dL
Uric Acid Level (mean of all subjects in each group) (group C 500 mg orally once a day, Day 1 24 Hour): 2.74 mg/dL
Uric Acid Level (mean of all subjects in each group) (group C 500 mg orally once a day, Day 3): 2.21 mg/dL
Uric Acid Level (mean of all subjects in each group) (group C 500 mg orally once a day, Day 7 0 Hour): 2.17 mg/dL
Uric Acid Level (mean of all subjects in each group) (group C 500 mg orally once a day, Day 7 0.5 Hour): 2.21 mg/dL
Uric Acid Level (mean of all subjects in each group) (group C 500 mg orally once a day, Day 7 1 Hour): 2.16 mg/dL
Uric Acid Level (mean of all subjects in each group) (group C 500 mg orally once a day, Day 7 2 Hour): 2.04 mg/dL
Uric Acid Level (mean of all subjects in each group) (group C 500 mg orally once a day, Day 7 3 Hour): 1.90 mg/dL
Uric Acid Level (mean of all subjects in each group) (group C 500 mg orally once a day, Day 7 4 Hour): 1.88 mg/dL
Uric Acid Level (mean of all subjects in each group) (group C 500 mg orally once a day, Day 7 6 Hour): 2.19 mg/dL
Uric Acid Level (mean of all subjects in each group) (group C 500 mg orally once a day, Day 7 8 Hour): 2.10 mg/dL
Uric Acid Level (mean of all subjects in each group) (group C 500 mg orally once a day, Day 7 10 Hour): 2.08 mg/dL
Uric Acid Level (mean of all subjects in each group) (group C 500 mg orally once a day, Day 7 12 Hour): 1.92 mg/dL
Uric Acid Level (mean of all subjects in each group) (group C 500 mg orally once a day, Day 7 16 Hour): 1.74 mg/dL
Uric Acid Level (mean of all subjects in each group) (group C 500 mg orally once a day, Day 7 24 Hour): 2.23 mg/dL
Uric Acid Level (mean of all subjects in each group) (group C 500 mg orally once a day, Day-1 (before dosing)): 5.10 mg/dL
Uric Acid Level (mean of all subjects in each group) (group C 500 mg orally once a day, Screening (before dosing)): 5.28 mg/dL
Uric Acid Level (mean of all subjects in each group) (group D 800 mg orally once a day, Day 1 0 Hour): 5.64 mg/dL
Uric Acid Level (mean of all subjects in each group) (group D 800 mg orally once a day, Day 1 0.5 Hour): 5.57 mg/dL
Uric Acid Level (mean of all subjects in each group) (group D 800 mg orally once a day, Day 1 1 Hour): 5.12 mg/dL
Uric Acid Level (mean of all subjects in each group) (group D 800 mg orally once a day, Day 1 2 Hour): 4.46 mg/dL
Uric Acid Level (mean of all subjects in each group) (group D 800 mg orally once a day, Day 1 3 Hour): 3.97 mg/dL
Uric Acid Level (mean of all subjects in each group) (group D 800 mg orally once a day, Day 1 4 Hour): 3.66 mg/dL
Uric Acid Level (mean of all subjects in each group) (group D 800 mg orally once a day, Day 1 6 Hour): 3.37 mg/dL
Uric Acid Level (mean of all subjects in each group) (group D 800 mg orally once a day, Day 1 8 Hour): 2.81 mg/dL
Uric Acid Level (mean of all subjects in each group) (group D 800 mg orally once a day, Day 1 10 Hour): 2.49 mg/dL
Uric Acid Level (mean of all subjects in each group) (group D 800 mg orally once a day, Day 1 12 Hour): 2.42 mg/dL
Uric Acid Level (mean of all subjects in each group) (group D 800 mg orally once a day, Day 1 16 Hour): 2.13 mg/dL
Uric Acid Level (mean of all subjects in each group) (group D 800 mg orally once a day, Day 1 24 Hour): 2.64 mg/dL
Uric Acid Level (mean of all subjects in each group) (group D 800 mg orally once a day, Day 3): 2.19 mg/dL
Uric Acid Level (mean of all subjects in each group) (group D 800 mg orally once a day, Day 7 0 Hour): 2.18 mg/dL
Uric Acid Level (mean of all subjects in each group) (group D 800 mg orally once a day, Day 7 0.5 Hour): 2.10 mg/dL
Uric Acid Level (mean of all subjects in each group) (group D 800 mg orally once a day, Day 7 1 Hour): 2.07 mg/dL
Uric Acid Level (mean of all subjects in each group) (group D 800 mg orally once a day, Day 7 2 Hour): 1.98 mg/dL
Uric Acid Level (mean of all subjects in each group) (group D 800 mg orally once a day, Day 7 3 Hour): 1.90 mg/dL
Uric Acid Level (mean of all subjects in each group) (group D 800 mg orally once a day, Day 7 4 Hour): 1.90 mg/dL
Uric Acid Level (mean of all subjects in each group) (group D 800 mg orally once a day, Day 7 6 Hour): 2.23 mg/dL
Uric Acid Level (mean of all subjects in each group) (group D 800 mg orally once a day, Day 7 8 Hour): 2.21 mg/dL
Uric Acid Level (mean of all subjects in each group) (group D 800 mg orally once a day, Day 7 10 Hour): 2.20 mg/dL
Uric Acid Level (mean of all subjects in each group) (group D 800 mg orally once a day, Day 7 12 Hour): 2.10 mg/dL
Uric Acid Level (mean of all subjects in each group) (group D 800 mg orally once a day, Day 7 16 Hour): 1.78 mg/dL
Uric Acid Level (mean of all subjects in each group) (group D 800 mg orally once a day, Day 7 24 Hour): 2.26 mg/dL
Uric Acid Level (mean of all subjects in each group) (group D 800 mg orally once a day, Day-1 (before dosing)): 5.54 mg/dL
Uric Acid Level (mean of all subjects in each group) (group D 800 mg orally once a day, Screening (before dosing)): 5.68 mg/dL
